Measured values taken from patent US7301033B2, “PPAR-activating compound” (Kowa Co., Ltd., priority 2005, dated 2007).

Experiments:
Format in all cases: cell-based
[1] = biological target: T1, human PPARα (Homo sapiens, UniProt Q07869); assay: Gal4-human PPARα chimera luciferase transfection assay in COS cells; settings: compound added at 1 μM, luciferase activity with WY14643 10 μM given as 10.0, 16 hours
T1 construct: 166th to 467th amino acids of human PPARα; expressed in transfected cells; host or cells: COS cells (African green monkey kidney)
T1 sequence (Q07869 166-467): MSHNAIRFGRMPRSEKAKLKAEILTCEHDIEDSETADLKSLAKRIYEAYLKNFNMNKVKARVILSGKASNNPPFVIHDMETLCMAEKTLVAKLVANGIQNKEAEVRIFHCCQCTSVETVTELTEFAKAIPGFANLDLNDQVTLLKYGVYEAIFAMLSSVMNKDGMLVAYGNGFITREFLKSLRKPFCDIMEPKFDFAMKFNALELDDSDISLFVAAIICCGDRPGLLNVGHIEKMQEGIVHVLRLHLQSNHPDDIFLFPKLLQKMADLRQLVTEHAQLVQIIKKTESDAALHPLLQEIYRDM
Description: (§1) The PPAR receptor-activating effect of the compound of the present invention represented by the formula (1) was measured by a method described below (Proc. Natl. Acad. Sci., 92, pp 7297-7301, 1995; Journal of Lipid Research, 40, pp 2099-2110, 1999; and Proc. Natl. Acad. Sci, 98, pp 5306-5311, 2001).
(§2) All the transfection assays were conducted using African green monkey kidney-derived cell line COS cells. The COS cells were cultured at 5% CO2 concentration using a DMEM medium containing 10% fetal bovine serum, glutamic acid, and an antibiotic as a culture solution.
(§3) Gal4-human PPARs chimeric constructs which were fused the DNA-binding region of yeast transcription factor Gal4 with the ligand-binding region of human PPARs were used as an expression vector. A chimera where 1st to 147th amino acids of the Gal4 transcription factor were fused with 166th to 467th amino acids of human PPARα, with 182nd to 505th amino acids of human PPARγ2, or with 137th to 441st amino acids of human PPARδ was used as the chimera for each isoform. A reporter vector used was firefly luciferase whose promoter region contains five Gal4 recognition sequences. The plasmids were transfected into the cells by a method using Lipofectamine. In addition, a β-galactosidase expression vector was used as an internal standard.
(§4) After the transfection into the cells, the medium was substituted with a DMEM medium (containing 0.2% serum) supplemented with the compound, in which the cells were then cultured for additional 16 hours. Thereafter, luciferase activity and β-galactosidase activity in the cell lysate were measured.
(§5) In the present experiment, dimethyl sulfoxide (DMSO) was used in the dissolution and dilution of the compound. When the cells were treated, the DMSO concentration in the DMEM medium (containing 0.2% serum) was adjusted to 0.1%.

[2] = biological target: T2, human PPARγ2 (Homo sapiens, UniProt P37231); assay: Gal4-human PPARγ2 chimera luciferase transfection assay in COS cells; settings: compound added at 1 μM, luciferase activity with rosiglitazone 1 μM given as 10.0, 16 hours
T2 construct: with 182nd to 505th amino acids of human PPARγ2; expressed in transfected cells; host or cells: COS cells (African green monkey kidney)
T2 sequence (P37231 182-505): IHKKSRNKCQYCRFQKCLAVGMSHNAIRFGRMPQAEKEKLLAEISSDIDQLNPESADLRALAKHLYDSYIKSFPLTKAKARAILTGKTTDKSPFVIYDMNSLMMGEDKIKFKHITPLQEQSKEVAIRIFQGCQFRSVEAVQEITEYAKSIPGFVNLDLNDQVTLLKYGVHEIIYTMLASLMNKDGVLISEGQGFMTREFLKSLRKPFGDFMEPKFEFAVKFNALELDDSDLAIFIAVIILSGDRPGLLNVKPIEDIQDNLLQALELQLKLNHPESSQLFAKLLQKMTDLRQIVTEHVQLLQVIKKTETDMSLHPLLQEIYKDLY
Description: as §1, §2, §3, §4, §5

[3] = biological target: T3, human PPARδ (Homo sapiens, UniProt Q03181); assay: Gal4-human PPARδ chimera luciferase transfection assay in COS cells; settings: compound added at 1 μM, luciferase activity with GW501516 1 μM given as 10.0, 16 hours
T3 construct: with 137th to 441st amino acids of human PPARδ; expressed in transfected cells; host or cells: COS cells (African green monkey kidney)
T3 sequence (Q03181 137-441): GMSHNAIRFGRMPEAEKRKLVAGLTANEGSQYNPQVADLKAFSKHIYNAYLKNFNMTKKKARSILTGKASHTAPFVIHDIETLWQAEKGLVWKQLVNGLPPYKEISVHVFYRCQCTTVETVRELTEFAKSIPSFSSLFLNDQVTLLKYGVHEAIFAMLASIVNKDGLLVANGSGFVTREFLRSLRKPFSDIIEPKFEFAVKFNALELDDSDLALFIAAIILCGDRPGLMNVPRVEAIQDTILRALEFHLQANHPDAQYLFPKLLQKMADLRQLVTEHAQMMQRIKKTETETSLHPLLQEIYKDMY
Description: as §1, §2, §3, §4, §5

Row | SMILES | hPPAR; Relative activity α [1] | hPPAR; Relative activity γ [2] | hPPAR; Relative activity δ [3]
1 | Cc1c(CN(CCSc2ccccc2C(=O)O)c2nc3ccccc3o2)cccc1[N+](=O)[O-] [Example 73, 2-[2-[N-(Benzoxazol-2-yl)-N-(2-methyl-3-nitrobenzyl) ]aminoethylthio]benzoic acid] | 11.2 | 1.1 | 0.2
2 | O=C(O)c1ccccc1OCCCCN(CCCOc1ccccc1)c1nc2ccccc2o1 [Example 53, 2-[4-[N-(Benzoxazol-2-yl)-N-3-phenoxypropyl]aminobutoxy]benzoic acid] | 16.0 | 3.5 | 0.1
3 | CCCCCCCCN(CCCCCSc1ccccc1C(=O)O)c1nc2ccccc2o1 [Example 102, 2-[5-[N-(Benzoxazol-2-yl)-N-n-octyl]aminopentylthio]benzoic acid] | 20.3 | 2.1 | 0.9
4 | CN(CCCCCSc1ccccc1C(=O)O)c1nc2ccccc2o1 [Example 100, 2-[5-[N-(Benzoxazol-2-yl)-N-methyl]aminopentylthio]benzoic acid] | 20.2 | 1.7 | 0.2
5 | CCCCCCCCN(CCCCSc1ccccc1C(=O)O)c1nc2ccccc2o1 [Example 94, 2-[4-[N-(Benzoxazol-2-yl)-N-n-octyl]aminobutylthio]benzoic acid] | 12.0 | 3.5 | 1.4
6 | CC(C)N(CCCCCSc1ccccc1C(=O)O)c1nc2ccccc2o1 [Example 70, 2-[5-[N-(Benzoxazol-2-yl)-N-isopropyl]aminopentylthio]benzoic acid] | 12.4 | 1.4 | 0.2
7 | O=C(O)c1ccccc1SCCCCN(CCOc1ccccc1)c1nc2ccccc2s1 [Example 111, 2-[4-[N-(Benzothiazol-2-yl)-N-2-phenoxyethyl]aminobutylthio]benzoic acid] | 16.0 | 4.6 | 0.3
8 | O=C(O)c1ccccc1SCCN(CCCc1ccccc1)c1nc2ccccc2o1 [Example 79, 2-[2-[N-(Benzoxazol-2-yl)-N-3-phenylpropyl]aminoethylthio]benzoic acid] | 13.3 | 1.1 | 0.2
9 | CCN(CCCCCSc1ccccc1C(=O)O)c1nc2ccccc2o1 [Example 99, 2-[5-[N-(Benzoxazol-2-yl)-N-ethyl]aminopentylthio]benzoic acid] | 16.8 | 2.2 | 0.3
10 | O=C(O)c1ccccc1SCCCCCN(CCCOc1ccccc1)c1nc2ccccc2o1 [Example 105, 2-[5-[N-(Benzoxazol-2-yl)-N-3-phenoxypropyl]aminopentylthio]benzoic acid] | 25.3 | 2.5 | 4.2
11 | CCCCCCCCN(CCOc1ccccc1C(=O)O)c1nc2ccccc2o1 [Example 13, 2-[2-[N-(Benzoxazol-2-yl)-N-n-octyl]aminoethoxy]benzoic acid] | 15.2 | 6.2 | 0.1
12 | O=C(O)c1ccccc1SCCN(Cc1ccccc1[N+](=O)[O-])c1nc2ccccc2o1 [Example 74, 2-[2-[N-(Benzoxazol-2-yl)-N-2-nitrobenzyl]aminoethylthio]benzoic acid] | 10.2 | 0.7 | 0.3
13 | CCCCCCCN(CCSc1ccccc1C(=O)O)c1nc2ccccc2o1 [Example 77, 2-[2-[N-(Benzoxazol-2-yl)-N-n-heptyl]aminoethylthio]benzoic acid] | 18.9 | 2.0 | 0.2
14 | CCCN(CCCCCSc1ccccc1C(=O)O)c1nc2ccccc2o1 [Example 103, 2-[5-[N-(Benzoxazol-2-yl)-N-n-propyl]aminopentylthio]benzoic acid] | 12.4 | 2.0 | 0.2
15 | CCCCCN(CCCCCSc1ccccc1C(=O)O)c1nc2ccccc2o1 [Example 72, 2-[5-[N-(Benzoxazol-2-yl)-N-n-pentyl]aminopentylthio]benzoic acid] | 13.5 | 1.7 | 0.6
16 | O=C(O)c1cccc(OCCCCN(CCCOc2ccccc2)c2nc3ccccc3o2)c1 [Example 48, 3-[4-[N-(Benzoxazol-2-yl)-N-3-phenoxypropyl]aminobutoxy]benzoic acid] | 16.0 | 2.1 | 0.2
17 | O=C(O)c1ccccc1OCCCCN(CCOc1ccccc1)c1nc2ccccc2o1 [Example 52, 2-[4-[N-(Benzoxazol-2-yl)-N-2-phenoxyethyl]aminobutoxy]benzoic acid] | 13.8 | 2.1 | 0.1
18 | O=C(O)c1ccccc1SCCCCCN(Cc1ccc(Cl)cc1)c1nc2ccccc2o1 [Example 98, 2-[5-[N-(Benzoxazol-2-yl)-N-4-chlorobenzyl]aminopentylthio]benzoic acid] | 14.7 | 3.3 | 0.7
